≈ marks a conversion by molar mass, not a printed value. Calls of active or inactive are those of the source. The calls are words filed in the database; no cut-off is given here. Bridge positions count the residues as written; N and C are the ends. Square brackets hold non-standard residues; d marks the D form. Peptide text beside a SMILES is read from it. S5 = C=CCCC[C@](C)(N)C(=O)O
How the values were obtained:
Lipid bilayer [1] = assay: Binding affinity to POPC liposome membranes assessed as reduction in blue shift at 10 uM by tryptophan fluorescence-based fluorometry
Erythrocyte = assay: Hemolytic activity in human RBC after 1 hr; type: ADME, cell-based
Escherichia coli [2] = assay: Antibacterial activity against Escherichia coli BL21 after 20 hrs by two fold serial dilution method; type: functional; details: BL21, 20 h
[3] = Hemolytic activity in human RBC at 4 uM after 1 hr; type: ADME, cell-based, Erythrocyte; details: red blood cells (erythrocytes), read-out: Activity
[4] = Therapeutic index, ratio of MHC for human RBC to MIC for Escherichia coli BL21; type: toxicity; details: read-out: TI
[5] = Binding affinity to SDS detergent micelles assessed as reduction in blue shift at 10 uM by tryptophan fluorescence-based fluorometry
Escherichia coli [6] = assay: Growth inhibition of Escherichia coli BL21 at 2 uM after 2 hrs relative to 6K-F17; type: functional; details: for inhibition of growth at 2 µM: BL21, BL21, 2 h, read-out: GI
Escherichia coli [7] = assay: Time dependent inhibition of Escherichia coli BL21 at 2 uM; type: functional, organism-based
Lipid bilayer [8] = assay: Binding affinity to Escherichia coli large unilamellar vesicles assessed as reduction in blue shift at 10 uM by tryptophan fluorescence-based fluorometry
Escherichia coli [9] = assay: Time dependent inhibition of Escherichia coli BL21 at 8 uM; type: functional, organism-based
Escherichia coli [10] = assay: Time dependent inhibition of Escherichia coli BL21 at 4 uM; type: functional, organism-based
Lipid bilayer [11] = assay: Binding affinity to Escherichia coli large unilamellar vesicles assessed as change in spectral line shape by 31P solid-state NMR spectroscopic analysis
Lipid bilayer [12] = assay: Binding affinity to POPC liposome membranes assessed as change in spectral lineshape by 31P solid-state NMR spectroscopic analysis

C[C@H](NC(=O)[C@H](C)NC(=O)[C@H](Cc1ccccc1)NC(=O)[C@]1(C)CCC/C=C\CCC[C@](C)(NC(=O)[C@H](Cc2ccccc2)NC(=O)[C@H](C)NC(=O)[C@H](C)NC(=O)[C@H](CCCCN)NC(=O)[C@H](CCCCN)NC(=O)[C@H](CCCCN)NC(=O)[C@H](CCCCN)NC(=O)[C@H](CCCCN)NC(=O)[C@@H](N)CCCCN)C(=O)N[C@@H](C)C(=O)N[C@@H](Cc2c[nH]c3ccccc23)C(=O)N[C@@H](C)C(=O)N1)C(N)=O (H-KKKKKKAAF[S5]AWA[S5]FAA-NH2; staple (Z) 10-14)
Activity (Lipid bilayer [1]): inactive | MHC (Erythrocyte): 3.8 µM | MIC (Escherichia coli [2]): 1 µM (≈ 1.94 µg/mL) | hemolysis at 1 h, 4 µM [3]: 2% | selectivity ratio [4]: 3.8 | Activity [5]: Active | inhibition of growth at 2 µM (Escherichia coli [6]): ≤ 40% | inhibition (Escherichia coli [7]): Active | Activity (Lipid bilayer [8]): inactive

C[C@H](NC(=O)CNC(=O)[C@H](Cc1ccccc1)NC(=O)[C@]1(C)CCC/C=C\CCC[C@](C)(NC(=O)[C@H](Cc2ccccc2)NC(=O)CNC(=O)[C@H](C)NC(=O)[C@H](CCCCN)NC(=O)[C@H](CCCCN)NC(=O)[C@H](CCCCN)NC(=O)[C@H](CCCCN)NC(=O)[C@H](CCCCN)NC(=O)[C@@H](N)CCCCN)C(=O)N[C@@H](C)C(=O)N[C@@H](Cc2c[nH]c3ccccc23)C(=O)NCC(=O)N1)C(N)=O (H-KKKKKKAGF[S5]AWG[S5]FGA-NH2; staple (Z) 10-14)
Activity (Lipid bilayer [1]): inactive | MHC (Erythrocyte): 128 µM | MIC (Escherichia coli [2]): 4.2 µM (≈ 7.99 µg/mL) | selectivity ratio [4]: 30.8 | Activity [5]: Active | inhibition (Escherichia coli [9]): Active | inhibition of growth at 2 µM (Escherichia coli [6]): ≤ 40% | Activity (Lipid bilayer [8]): Active

H-KKKKKKAAFAAWAAFAA-NH2
Activity (Lipid bilayer [1]): inactive | MHC (Erythrocyte): 320 µM | MIC (Escherichia coli [2]): 1.6 µM | selectivity ratio [4]: 200 | inhibition (Escherichia coli [10]): Active | Activity [5]: Active | Activity (Lipid bilayer [11]): Active | growth inhibition (GI) (Escherichia coli [6]): Active | Activity (Lipid bilayer [12]): Active | Activity (Lipid bilayer [8]): Active

C[C@H](NC(=O)CNC(=O)[C@H](Cc1ccccc1)NC(=O)[C@]1(C)CCC/C=C\CCC[C@](C)(NC(=O)[C@H](Cc2ccccc2)NC(=O)CNC(=O)[C@H](C)NC(=O)[C@H](CCCCN)NC(=O)[C@H](CCCCN)NC(=O)[C@H](CCCCN)NC(=O)[C@H](CCCCN)NC(=O)[C@H](CCCCN)NC(=O)[C@@H](N)CCCCN)C(=O)N[C@@H](C)C(=O)N[C@@H](Cc2c[nH]c3ccccc23)C(=O)N[C@@H](C)C(=O)N1)C(N)=O (H-KKKKKKAGF[S5]AWA[S5]FGA-NH2; staple (Z) 10-14)
Activity (Lipid bilayer [1]): inactive | MHC (Erythrocyte): 15 µM | MIC (Escherichia coli [2]): 1.6 µM (≈ 3.06 µg/mL) | selectivity ratio [4]: 9.4 | inhibition (Escherichia coli [10]): Active | Activity [5]: Active | inhibition of growth at 2 µM (Escherichia coli [6]): ≤ 40% | Activity (Lipid bilayer [8]): Active

C[C@H](NC(=O)CNC(=O)[C@H](Cc1ccccc1)NC(=O)[C@]1(C)CCC/C=C\CCC[C@](C)(NC(=O)[C@H](Cc2ccccc2)NC(=O)CNC(=O)[C@H](CC(N)=O)NC(=O)[C@H](CCCCN)NC(=O)[C@H](CCCCN)NC(=O)[C@H](CCCCN)NC(=O)[C@H](CCCCN)NC(=O)[C@H](CCCCN)NC(=O)[C@@H](N)CCCCN)C(=O)N[C@@H](C)C(=O)N[C@@H](Cc2c[nH]c3ccccc23)C(=O)NCC(=O)N1)C(N)=O (H-KKKKKKNGF[S5]AWG[S5]FGA-NH2; staple (Z) 10-14)
Activity (Lipid bilayer [1]): inactive | MHC (Erythrocyte): 587 µM | MIC (Escherichia coli [2]): 4.2 µM (≈ 8.17 µg/mL) | selectivity ratio [4]: 140 | Activity [5]: inactive | inhibition (Escherichia coli [9]): Active | Activity (Lipid bilayer [11]): Active | inhibition of growth at 2 µM (Escherichia coli [6]): ≤ 40% | Activity (Lipid bilayer [12]): inactive | Activity (Lipid bilayer [8]): Active
